# From article PMC4080982, “Interactions of antagonists with subtypes of inositol 1,4,5-trisphosphate (IP3) receptor” (British Journal of Pharmacology, 2014)
# Experiments:
# [1] = tested on: HEK cells; design: method as in Kurian et al., [2009]; conditions: Xestospongin C 10 μM for 30 min in Ca^2+-free medium, ref Kurian et al., [2009]; cited from earlier work
# [2] = target: T1, rat IP3R1 (Rattus norvegicus, UniProt P29994); assay: IP3-evoked Ca^2+ release from permeabilized DT40-IP3R1 cells; type: cell-based; conditions: IP3R1
# T1 construct: different for NTs (NT2 > NT1 > > NT3) and full-length IP3Rs (IP3R3 > IP3R1 ≥ IP3R2); expressed in transfected cells
# Protocol: (§1) We used DT40 cells lacking endogenous IP3Rs (Sugawara et al., [1997]), but stably expressing rat IP3R1 (GenBank accession number GQ233032.1; Pantazaka and Taylor, [2011]), mouse IP3R2 (GU980658.1; Tovey et al., [2010]) or rat IP3R3 (GQ233031.1; Rahman et al., [2009]). Cells were grown in suspension in RPMI 1640 medium supplemented with 10% FBS, 1% heat-inactivated chicken serum, 2 mM glutamine and 50 μM 2-mercaptoethanol at 37°C in humidified air containing 5% CO2. Cells were used or passaged when they reached a density of ∼1.5 × 10^6 cells mL^−1.
# (§2) A low-affinity Ca^2+ indicator trapped within the ER of permeabilized DT40 cells was used to measure IP3-evoked Ca^2+ release (Tovey et al., [2006]; Saleem et al., [2012]). Briefly, the ER was loaded with indicator by incubating cells (∼5 × 10^7 mL^−1) in the dark with Mag-fluo-4AM (20 μM) in HEPES-buffered saline (HBS) containing 0.02% (v/v) Pluronic F127 for 1 h at 22°C. HBS had the following composition: 135 mM NaCl, 5.9 mM KCl, 11.6 mM HEPES, 1.5 mM CaCl2, 11.5 mM glucose, 1.2 mM MgCl2, pH 7.3. After permeabilization of the plasma membrane with saponin (10 μg·mL^−1, 4 min, 37°C) in Ca^2+-free cytosol-like medium (CLM), permeabilized cells were washed (650× g, 2 min) and resuspended (∼10^7 mL^−1) in Mg^2+-free CLM containing carbonyl cyanide 4-(trifluoromethoxy) phenylhydrazone (FCCP, 10 μM) to inhibit mitochondria, and supplemented with CaCl2 to give a final free [Ca^2+] of 220 nM after addition of 1.5 mM MgATP. Ca^2+-free CLM had the following composition: 2 mM NaCl, 140 mM KCl, 1 mM EGTA, 20 mM PIPES, 2 mM MgCl2, pH 7.0. Permeabilized cells were then distributed into 96-well plates (50 μL, 5 × 10^5 cells per well), centrifuged (300× g, 2 min) and used for experiments at 20°C. Addition of MgATP (1.5 mM) allowed Ca^2+ uptake by the ER, which was monitored at intervals of ∼1 s using a FlexStation-3 plate reader (MDS Analytical Devices, Berkshire, UK; Tovey et al., [2006]). After 2 min, when the ER had loaded to steady-state with Ca^2+, IP3 was added with CPA (10 μM) to inhibit further Ca^2+ uptake. IP3-evoked Ca^2+ release was expressed as a fraction of that released by ionomycin (1 μM; Tovey et al., [2006]). Similar methods were used to measure IP3-evoked Ca^2+ release from intact or permeabilized HEK cells (Tovey et al., [2008]). The timings of antagonist additions are described in the figure legends. The affinity of each competitive antagonist (pKD) was determined from the intercept on the abscissa of the Schild plot.
# (§3) Concentration–effect relationships were fitted to Hill equations using Prism (version 5.0, GraphPad, San Diego, CA, USA), from which Hill coefficients (h), the fraction of the intracellular Ca^2+ stores released by a maximally effective concentrations of IP3, and pEC50 values were calculated.
# [3] = tested on: permeabilized DT40-IP3R1-3 cells; assay: Ca^2+ uptake and Ca^2+ content of the intracellular stores of permeabilized DT40 cells; type: cell-based; conditions: permeabilized DT40 cells, 5 min pre-incubation
# Protocol: Briefly, the ER was loaded with indicator by incubating cells (∼5 × 10^7 mL^−1) in the dark with Mag-fluo-4AM (20 μM) in HEPES-buffered saline (HBS) containing 0.02% (v/v) Pluronic F127 for 1 h at 22°C. […] Ca^2+-free CLM had the following composition: 2 mM NaCl, 140 mM KCl, 1 mM EGTA, 20 mM PIPES, 2 mM MgCl2, pH 7.0. Permeabilized cells were then distributed into 96-well plates (50 μL, 5 × 10^5 cells per well), centrifuged (300× g, 2 min) and used for experiments at 20°C. […] After 2 min, when the ER had loaded to steady-state with Ca^2+, IP3 was added with CPA (10 μM) to inhibit further Ca^2+ uptake. […] The timings of antagonist additions are described in the figure legends. The affinity of each competitive antagonist (pKD) was determined from the intercept on the abscissa of the Schild plot.
# [4] = target: T2, rat IP3R3 (Rattus norvegicus, UniProt Q63269); assay: IP3-evoked Ca^2+ release from permeabilized DT40-IP3R3 cells; type: cell-based; conditions: IP3R3
# T2 construct: different for NTs (NT2 > NT1 > > NT3) and full-length IP3Rs (IP3R3 > IP3R1 ≥ IP3R2); expressed in transfected cells
# T2 sequence (Q63269 whole entry): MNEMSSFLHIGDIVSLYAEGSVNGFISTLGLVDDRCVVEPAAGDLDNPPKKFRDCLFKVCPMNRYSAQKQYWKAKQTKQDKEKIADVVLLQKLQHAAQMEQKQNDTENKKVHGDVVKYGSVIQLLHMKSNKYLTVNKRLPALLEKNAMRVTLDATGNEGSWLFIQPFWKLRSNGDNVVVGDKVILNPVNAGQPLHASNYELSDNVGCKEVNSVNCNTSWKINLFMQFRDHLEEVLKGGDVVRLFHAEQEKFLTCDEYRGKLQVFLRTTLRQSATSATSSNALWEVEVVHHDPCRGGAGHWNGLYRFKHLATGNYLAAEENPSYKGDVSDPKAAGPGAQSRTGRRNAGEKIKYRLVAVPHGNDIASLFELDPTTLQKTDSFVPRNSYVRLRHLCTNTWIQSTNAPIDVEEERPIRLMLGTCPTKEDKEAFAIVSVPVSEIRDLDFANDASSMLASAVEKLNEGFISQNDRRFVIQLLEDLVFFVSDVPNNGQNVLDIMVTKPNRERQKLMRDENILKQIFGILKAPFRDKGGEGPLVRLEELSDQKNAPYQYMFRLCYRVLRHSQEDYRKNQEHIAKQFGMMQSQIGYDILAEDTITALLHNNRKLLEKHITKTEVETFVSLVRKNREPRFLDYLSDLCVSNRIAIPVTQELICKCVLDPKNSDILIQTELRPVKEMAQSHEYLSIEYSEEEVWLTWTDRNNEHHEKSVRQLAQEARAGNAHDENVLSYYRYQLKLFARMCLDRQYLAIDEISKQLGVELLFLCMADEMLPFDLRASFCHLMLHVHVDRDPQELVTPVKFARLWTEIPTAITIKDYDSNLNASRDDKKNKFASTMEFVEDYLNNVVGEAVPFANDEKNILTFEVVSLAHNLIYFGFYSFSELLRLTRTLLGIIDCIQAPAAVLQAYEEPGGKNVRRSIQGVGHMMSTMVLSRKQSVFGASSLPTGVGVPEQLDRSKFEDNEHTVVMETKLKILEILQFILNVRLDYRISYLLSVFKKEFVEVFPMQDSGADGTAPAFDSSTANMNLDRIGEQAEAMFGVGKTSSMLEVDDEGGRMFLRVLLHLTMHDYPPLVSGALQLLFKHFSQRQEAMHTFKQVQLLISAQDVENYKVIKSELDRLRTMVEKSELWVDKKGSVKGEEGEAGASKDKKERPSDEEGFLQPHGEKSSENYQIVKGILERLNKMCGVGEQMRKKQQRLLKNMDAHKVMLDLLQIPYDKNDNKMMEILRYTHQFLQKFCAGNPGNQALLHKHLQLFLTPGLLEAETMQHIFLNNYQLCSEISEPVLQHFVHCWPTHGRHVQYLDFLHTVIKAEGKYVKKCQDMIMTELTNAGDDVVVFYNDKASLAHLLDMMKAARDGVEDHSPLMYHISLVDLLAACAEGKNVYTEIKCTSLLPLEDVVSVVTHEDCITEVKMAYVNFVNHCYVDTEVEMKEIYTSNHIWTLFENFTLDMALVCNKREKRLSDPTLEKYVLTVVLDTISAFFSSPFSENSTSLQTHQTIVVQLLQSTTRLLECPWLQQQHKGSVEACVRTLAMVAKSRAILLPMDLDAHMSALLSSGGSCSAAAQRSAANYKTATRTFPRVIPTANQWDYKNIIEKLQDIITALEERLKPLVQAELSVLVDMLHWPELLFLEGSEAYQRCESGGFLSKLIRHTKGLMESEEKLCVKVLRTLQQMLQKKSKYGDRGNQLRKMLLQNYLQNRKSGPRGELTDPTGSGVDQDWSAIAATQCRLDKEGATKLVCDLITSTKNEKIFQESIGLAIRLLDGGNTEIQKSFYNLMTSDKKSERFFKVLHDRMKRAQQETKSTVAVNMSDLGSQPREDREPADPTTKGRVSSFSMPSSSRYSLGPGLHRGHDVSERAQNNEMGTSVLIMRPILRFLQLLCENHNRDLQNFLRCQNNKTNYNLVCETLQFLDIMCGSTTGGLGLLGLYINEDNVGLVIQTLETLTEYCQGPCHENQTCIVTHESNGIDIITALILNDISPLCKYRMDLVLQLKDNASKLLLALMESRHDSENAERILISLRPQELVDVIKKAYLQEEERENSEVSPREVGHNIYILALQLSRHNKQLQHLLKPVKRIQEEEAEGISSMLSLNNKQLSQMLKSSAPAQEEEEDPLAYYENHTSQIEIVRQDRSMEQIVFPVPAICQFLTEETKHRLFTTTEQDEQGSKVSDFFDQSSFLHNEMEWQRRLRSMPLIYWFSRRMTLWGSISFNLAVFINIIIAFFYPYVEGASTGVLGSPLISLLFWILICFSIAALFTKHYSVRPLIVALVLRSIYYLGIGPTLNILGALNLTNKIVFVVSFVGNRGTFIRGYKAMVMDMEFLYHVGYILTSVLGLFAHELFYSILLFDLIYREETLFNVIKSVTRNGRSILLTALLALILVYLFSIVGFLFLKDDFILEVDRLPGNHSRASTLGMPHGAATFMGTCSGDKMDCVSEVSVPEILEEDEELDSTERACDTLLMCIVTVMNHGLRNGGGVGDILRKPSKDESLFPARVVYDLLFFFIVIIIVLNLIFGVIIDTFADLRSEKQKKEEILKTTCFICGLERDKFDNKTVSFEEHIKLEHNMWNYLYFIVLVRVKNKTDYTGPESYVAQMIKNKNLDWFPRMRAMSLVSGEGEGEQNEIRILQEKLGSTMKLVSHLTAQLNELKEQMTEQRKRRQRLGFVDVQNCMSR
# Protocol: as §1, §2, §3
# [5] = target: T3, mouse IP3R2 (Mus musculus, UniProt Q9Z329); assay: IP3-evoked Ca^2+ release from permeabilized DT40-IP3R2 cells; type: cell-based; conditions: IP3R2
# T3 construct: different for NTs (NT2 > NT1 > > NT3) and full-length IP3Rs (IP3R3 > IP3R1 ≥ IP3R2); expressed in transfected cells
# Protocol: as §1, §2, §3
# [6] = tested on: HEK cells; assay: Carbachol-evoked Ca^2+ signals in intact HEK cells; type: cell-based; conditions: intact HEK cells; Xestospongin 10 μM for 30 min
# Protocol: as §2
# [7] = tested on: cerebellar microsomes; design: method as in Gafni et al., [1997]; conditions: ref Gafni et al., [1997], read-out: IC50, inhibition of IP3-evoked Ca^2+ release; cited from earlier work
# [8] = tested on: HEK cells; assay: Steady-state Ca^2+ content of the intracellular stores of permeabilized HEK cells; type: cell-based; conditions: 5 min
# Protocol: as §2, with “Ca^2+-free CLM had the following composition: 2 mM NaCl, 140 mM KCl, 1 mM EGTA, 20 mM PIPES, 2 mM MgCl2, pH 7.0. Permeabilized cells were then distributed into 96-well plates (50 μL, 5 × 10^5 cells per well), centrifuged (300× g, 2 min) and used for experiments at 20°C.” left out, “After 2 min, when the ER had loaded to steady-state with Ca^2+, IP3 was added with CPA (10 μM) to inhibit further Ca^2+ uptake.” left out, “Similar methods were used to measure IP3-evoked Ca^2+ release from intact or permeabilized HEK cells (Tovey et al., [2008]). The timings of antagonist additions are described in the figure legends.” left out
# [9] = tested on: HEK cells; assay: IP3-evoked Ca^2+ release from permeabilized HEK cells; type: cell-based; conditions: 5 min
# Protocol: as §2, with “Ca^2+-free CLM had the following composition: 2 mM NaCl, 140 mM KCl, 1 mM EGTA, 20 mM PIPES, 2 mM MgCl2, pH 7.0. Permeabilized cells were then distributed into 96-well plates (50 μL, 5 × 10^5 cells per well), centrifuged (300× g, 2 min) and used for experiments at 20°C.” left out, “After 2 min, when the ER had loaded to steady-state with Ca^2+, IP3 was added with CPA (10 μM) to inhibit further Ca^2+ uptake.” left out, “Similar methods were used to measure IP3-evoked Ca^2+ release from intact or permeabilized HEK cells (Tovey et al., [2008]). The timings of antagonist additions are described in the figure legends.” left out
# [10] = 5 µM, 5 min, purified (Gafni et al., 1997)
# [11] = 20 µM, 7 min, purified (Gafni et al., 1997)
# [12] = 20 µM, 12 min, purified (Gafni et al., 1997)
# [13] = Xestospongin 20 μM, pooled 7 and 12 min
# [14] = Xestospongin 20 μM, pooled from 7 and 12 min pre-incubation
# [15] = Xestospongin C 5–20 μM from either source, 5–12 min before IP3
# [16] = 10 µM, 5 min, purified (Gafni et al., 1997)
# [17] = 10 µM, 5 min, source Calbiochem
smiles,measurement,setting,value
C1CCC[C@H]2CCCN3CC[C@@H](CCCCCC[C@@H]4CCCN5CC[C@@H](CC1)O[C@@H]45)O[C@@H]23 [Xestospongin C],effect on carbachol-evoked Ca^2+ signals,[1],"substantial, though incomplete, inhibition"
same,ΔMax,[2]; [10],2 ± 2%
same,ΔpEC50,"[2]; 5 µM, 5 min, purified as described (Gafni et al., 1997)",-0.12 ± 0.12 M⁻¹
same,ΔMax,"[2]; 5 µM, 5 min, source Calbiochem",2 ± 1%
same,ΔpEC50,"[2]; 5 µM, 5 min, source Calbiochem",0.09 ± 0.07 M⁻¹
same,ΔMax,[2]; [11],9 ± 3 %
same,ΔpEC50,[2]; [11],0.08 ± 0.07 M⁻¹
same,ΔMax,[2]; [12],4 ± 3%
same,ΔpEC50,[2]; [12],0.33 ± 0.18 M⁻¹
same,ΔMax,[2]; [13],6 ± 2 %
same,ΔpEC50,[2]; [14],0.21 ± 0.10 M
same,effect on IP3-evoked Ca^2+ release,[2]; [15],no significant effect
same,effect on Ca^2+ content of the stores,[3]; 5 μM purified Xestospongin C,no significant effect
same,ΔMax,[4]; [10],3 ± 14%
same,ΔpEC50,[4]; [10],0.02 ± 0.09 M⁻¹
same,ΔMax,"[4]; 5 µM, 5 min, source Calbiochem",15 ± 7%
same,ΔpEC50,"[4]; 5 µM, 5 min, source Calbiochem",-0.04 ± 0.11 M⁻¹
same,ΔMax,[4]; [11],1 ± 3%
same,ΔpEC50,[4]; [11],0.15 ± 0.02 M⁻¹
same,ΔMax,[4]; [12],2 ± 2%
same,ΔpEC50,[4]; [12],0.10 ± 0.05 M⁻¹
same,ΔMax,[4]; [13],1 ± 2%
same,ΔpEC50,[4]; [13],0.12 ± 0.03 M
same,effect on IP3-evoked Ca^2+ release,[4]; [15],no significant effect
same,ΔMax,[5]; [10],0 ± 4%
same,ΔMax,"[5]; 5 µM, 5 min, source Calbiochem",5 ± 6%
same,ΔMax,[5]; [11],2 ± 2%
same,ΔMax,[5]; [12],1 ± 2%
same,ΔMax,[5]; [13],1 ± 1%
same,effect on IP3-evoked Ca^2+ release,[5]; [15],no significant effect
same,effect on Ca^2+ signals evoked by carbachol,[6],no significant effect
same,IC50,[7],358 nM
same,effect on Ca^2+ content of the intracellular stores,[8]; Xestospongin C 5 μM,no effect
same,effect on Ca^2+ release evoked by IP3,[9]; Xestospongin C 5 μM,no effect
O[C@@]12CCCCCC[C@H]3CCN4CCC[C@H](CCCCCC[C@H]5CCN(CCC1)[C@@H]2O5)[C@H]4O3 [Xestospongin D],ΔMax,[2]; [16],15 ± 4 %
same,ΔpEC50,[2]; [16],-0.02 ± 0.10 M⁻¹
same,ΔMax,[2]; [17],17 ± 6 %
same,ΔpEC50,[2]; [17],0.28 ± 0.13 M⁻¹
same,ΔMax,[2]; [11],18 ± 5 %
same,ΔpEC50,[2]; [11],0.37 ± 0.11 M⁻¹
same,ΔMax,[2]; [12],18 ± 1 %
same,ΔpEC50,[2]; [12],0.14 ± 0.12 M⁻¹
same,ΔMax,[2]; [13],18 ± 2 %
same,ΔpEC50,[2]; [14],0.26 ± 0.09 M
same,effect on IP3-evoked Ca^2+ release,"[2]; Xestospongin D 10–20 μM from either source, 5–12 min","modest, but statistically significant"
same,effect on Ca^2+ content of the intracellular stores,[3]; 10 μM purified Xestospongin D,no effect
same,ΔMax,[4]; [16],8 ± 8%
same,ΔpEC50,[4]; [16],0.16 ± 0.26 M⁻¹
same,ΔMax,[4]; [17],12 ± 1 %
same,ΔpEC50,[4]; [17],0.03 ± 0.04 M⁻¹
same,ΔMax,[4]; [11],4 ± 2%
same,ΔpEC50,[4]; [11],0.39 ± 0.10 M⁻¹
same,ΔMax,[4]; [12],-1 ± 0%
same,ΔpEC50,[4]; [12],0.03 ± 0.08 M⁻¹
same,ΔMax,[4]; [13],2 ± 2%
same,ΔpEC50,[4]; [13],0.21 ± 0.10 M
same,ΔMax,[5]; [16],2 ± 3%
same,ΔpEC50,[5]; [16],-0.07 ± 0.07
same,ΔMax,[5]; [17],2 ± 4%
same,ΔpEC50,[5]; [17],0.25 ± 0.22
same,ΔMax,[5]; [11],5 ± 2%
same,ΔpEC50,[5]; [11],-0.06 ± 0.04
same,ΔMax,[5]; [12],11 ± 5%
same,ΔpEC50,[5]; [12],-0.23 ± 0.06
same,ΔMax,[5]; [13],8 ± 3 %
same,ΔpEC50,[5]; [13],−0.15 ± 0.05
same,ΔpEC50,"[5]; Xestospongin 20 μM, pooled 7 and 12 min, listed as XeD",-0.15 ± 0.05
same,effect on Ca^2+ signals evoked by carbachol,[6],no significant effect
same,effect on Ca^2+ content of the intracellular stores,[8]; Xestospongin D 10 μM,no effect
same,effect on Ca^2+ release evoked by IP3,[9]; Xestospongin D 10 μM,no effect
